# Source: patent publication US20110015278A1, “PHYTOL AS A CHOLESTEROL LOWERING AGENT” (priority 2008, published 2011)
# Experiments:
# [1] = system: RXR (retinoid X receptor); settings: cited from earlier work
# PPARα = target: T1, PPARα (Homo sapiens, UniProt Q07869); settings: cited from earlier work
# T1 sequence (Q07869 1-468): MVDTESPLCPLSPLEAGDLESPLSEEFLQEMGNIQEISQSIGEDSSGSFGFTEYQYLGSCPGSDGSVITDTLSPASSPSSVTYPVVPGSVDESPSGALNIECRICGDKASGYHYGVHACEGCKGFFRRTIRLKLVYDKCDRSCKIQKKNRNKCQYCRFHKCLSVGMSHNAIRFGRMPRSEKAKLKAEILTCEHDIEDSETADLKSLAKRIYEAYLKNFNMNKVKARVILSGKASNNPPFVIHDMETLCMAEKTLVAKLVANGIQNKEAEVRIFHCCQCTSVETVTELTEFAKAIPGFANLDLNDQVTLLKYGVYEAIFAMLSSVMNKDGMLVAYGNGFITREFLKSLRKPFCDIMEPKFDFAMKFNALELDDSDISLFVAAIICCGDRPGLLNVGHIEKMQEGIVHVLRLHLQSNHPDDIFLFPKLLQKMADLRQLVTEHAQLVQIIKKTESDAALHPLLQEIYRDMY
# 3T3-L1 cells = 3T3-L1 cells (Schluter et al., 2002); cited from earlier work
# hepatocytes = settings: EP 1177789; cited from earlier work
# [2] = system: mouse teratogenesis models; settings: mouse teratogenesis models (Arnhold et al., 2002); cited from earlier work
# healthy rats [3] = assay: Phytol treatment healthy rats, serum triglycerides and cholesterol (Example 1); assay type: in vivo, rat; settings: 1 weight percentage phytol mixed in the food, after 4 days, vs untreated rats
# Description: FIG. 1 is a graph comparing the triglyceride and cholesterol lowering effect of phytol in rats. The rats were treated with oral administration of phytol at 125 mg daily.
# (§1) Triglyceride and cholesterol lowering effect after oral administration of phytol was validated in serum from healthy rats treated with phytol. Phytol (FIG. 1; black bars) was administrated to rats at 1 weight percentage phytol mixed in the food. Analysis was made in comparison with control (FIG. 1; white bars) untreated rats.
# healthy pigs [4] = assay: Phytol treatment healthy pigs, serum triglycerides and cholesterol (Example 2); assay type: in vivo, pig; settings: 10 g phytol daily mixed in the food, after 1 wk, vs untreated pigs
# Description: FIG. 2 is a graph comparing the triglyceride and cholesterol lowering effect of phytol in pigs. The pigs were treated with oral administration of phytol at 10 g daily.
# Triglyceride and cholesterol lowering effect after oral administration of phytol was validated in serum from healthy pigs treated with phytol. Phytol (FIG. 2.; black bars) was administrated to pigs at 10 g phytol daily mixed in the food. Analysis was made in comparison with control (FIG. 2.; white bars) untreated pigs.
# healthy pigs [5] = assay: Phytol treatment healthy pigs, increasing dose, serum triglycerides (Example 3); assay type: in vivo, pig; settings: vs corn oil control
# Description: FIG. 3 is a graph showing the effect of increased dose of phytol in pigs. The pigs were treated with oral administration of 1.25; 2.5; 5 and 10 g phytol daily for two weeks, respectively.
# Triglyceride lowering effect after oral administration of phytol was validated in serum from healthy pigs treated with phytol. Phytol (FIG. 3.; black circles) was administrated to pigs at 1.25, 2.5, 5 and 10 g phytol daily. Analysis was made in comparison with control (FIG. 3.; open circles) pigs given corn oil as control.
# obese (ob/ob) mice = assay: Phytol treatment obese (ob/ob) mice, serum cholesterol (Example 4); assay type: in vivo, mouse; settings: 0.75 weight percentage phytol mixed in the food, during 5 weeks, vs untreated mice, p<0.001
# Description: FIG. 4 is a graph comparing the cholesterol lowering effect of phytol in obese ob/ob mice. The mice were treated with oral administration of phytol 0.75% weight evenly distributed in powdered chow.
# Cholesterol lowering effect after oral administration of phytol was validated in serum from obese (ob/ob) mice treated with phytol. Phytol (FIG. 4; black circles) was administrated to the mice at 0.75 weight percentage phytol mixed in the food. Analysis was made in comparison with control (FIG. 4; open circles) untreated mice.
# healthy rats [6] = assay: Phytol treatment healthy rats, serum cholesterol and LDL-cholesterol, thirty days (Example 5); assay type: in vivo, rat; settings: 1 weight percentage phytol in the food
# Description: FIG. 5 is a graph comparing the cholesterol and LDL-Cholesterol lowering effect of phytol in rats. The rats were treated with oral administration of phytol at 1% weight evenly distributed in powdered chow.
# as §1, with “Cholesterol” for “Triglyceride”, “LDL-Cholesterol” for “cholesterol”, “5;” for “1;”, “food for thirty days.” for “food.”
# healthy mice = assay: Phytol treatment healthy mice, serum cholesterol and LDL-cholesterol (Example 6); assay type: in vivo, mouse; settings: 1 weight percentage phytol in the food, after thirty days, vs untreated mice
# Description: FIG. 6 is a graph comparing the cholesterol and LDL-Cholesterol lowering effect of phytol in mice. The mice were treated with oral administration of phytol at 1% weight evenly distributed in powdered chow.
# as §1, with “Cholesterol” for “Triglyceride”, “LDL-Cholesterol” for “cholesterol”, “mice” for “rats”, “6;” for “1;”, “food for thirty days.” for “food.”, “mice.” for “rats.”
# healthy rats [7] = assay: Phytol treatment healthy rats, 400 mg every second day, serum cholesterol and LDL-cholesterol (Example 7); assay type: in vivo, rat; settings: 400 mg phytol every second day, after three weeks, vs untreated rats
# Description: FIG. 7 is a graph comparing the cholesterol and LDL-Cholesterol lowering effect of Phytol in rats. The rats were treated with oral administration of phytol at 400 mg every second day for three weeks.
# Cholesterol and LDL-Cholesterol lowering effect after oral administration of phytol was validated in serum from healthy rats treated with phytol. Phytol (FIG. 7; black bars) was administrated to rats at 400 mg phytol administered every second day for three weeks. Analysis was made in comparison with control (FIG. 7; white bars) untreated rats.
# rats [8] = settings: cited from earlier work
# rabbits = settings: cited from earlier work
# rats [9] = settings: rats fed 0.5% phytol in the diet for 15 months (Steinberg et al., 1966); cited from earlier work
# humans = settings: 10% concentration (Kligman, 1966; Kligman & Epstein, 1975); cited from earlier work
# [10] = cited from earlier work
# [11] = cited from earlier work; remark: listed apart in the source
# adult mice = settings: cited from earlier work
# [12] = one Refsum's disease patient, 72 mg tritium labelled phytol orally after overnight fasting (Kahlke & Wagener, 1966); cited from earlier work
# [13] = phytol given as chlorophyll; cited from earlier work
# [14] = after ten days, vs untreated rats, p<0.0001
# [15] = after three weeks of phytol feeding
compound,measurement,setting,value
CC(C)CCCC(C)CCCC(C)CCCC(C)CC(=O)O (stereo not drawn) [phytanic acid],RXR (retinoid X receptor) activator,"[1]; Kitareewan et al., 1996",activator
same,activation of RXR in vitro (postulated),[1]; in vitro,activate
same,activation of PPARα in vitro (postulated),PPARα,activate
same,AP2 mRNA,3T3-L1 cells,activates AP2 mRNA
same,transcription of the genes for glucose transporters and glucokinase,hepatocytes,increase and stimulate the transcription
same,uptake of glucose in hepatocytes,hepatocytes,increased uptake of glucose
same,vitamin A (retinol) induced teratogenic effects,[2],able to prevent
"C/C(=C\CO)CCCC(C)CCCC(C)CCCC(C)C (stereo not drawn) [phytol, 3,7,11,15-Tetramethyl-hexadec-2-en-1-ol]",serum levels of cholesterol,healthy rats [3]; p<0.001,significantly reduced
same,serum levels of triglycerides,healthy rats [3]; p<0.05,significantly reduced
same,serum levels of triglycerides,healthy pigs [4]; p<0.01,significantly reduced
same,serum levels of cholesterol,healthy pigs [4]; p<0.05,significantly reduced
same,serum levels of triglycerides,"healthy pigs [5]; 2.5 g phytol per day oral, p<0.05",significantly reduced
same,serum levels of triglycerides,"healthy pigs [5]; 5 g phytol per day oral, p<0.01",significantly reduced
same,serum levels of triglycerides,"healthy pigs [5]; 10 g phytol per day oral, p<0.001",significantly reduced
same,serum levels of cholesterol,obese (ob/ob) mice,significantly reduced
same,serum LDL-cholesterol,healthy rats [6]; [14],significantly reduced
same,serum cholesterol,healthy rats [6]; [14],significantly reduced
same,serum LDL-cholesterol,healthy rats [6]; after thirty days,even more reduced
same,serum LDL-cholesterol,healthy mice; p<0.01,significantly reduced
same,serum cholesterol,healthy mice; p=0.05,significantly reduced
same,serum LDL-cholesterol,healthy rats [7]; p<0.001,significantly reduced
same,serum cholesterol,healthy rats [7]; p<0.05,significantly reduced
same,acute oral LD50,rats [8],exceed 5 g/kg
same,acute dermal LD50,rabbits,exceed 5 g/kg
same,growth inhibition or toxicity,rats [9],No evidence of growth inhibition or toxicity
same,irritation,humans,no irritation
same,capacity to absorb into the intestinal lymphatic,"[10]; rat, oral administration (Baxter & Steinberg, 1967)",≤ 0.2 g phytol/kg bodyweight
same,time of transportation into the intestinal lymphatic after administration,"[10]; rat, oral administration",≤ 20 h
same,absorption when mixed with bile salts prior to administration,"[10]; rat, oral, phytol mixed with bile salts",absorption increases
same,orally administered phytol absorbed,"[10]; rat, oral",More than 50%
same,share of absorbed phytol absorbed via the intestinal lymphatics,"[10]; rat, oral",more than 70%
same,absorption and degradation,"[10]; rats fed 5% phytol (Mize et al., 1966)",capacity to rapidly absorb and degrade phytol
same,"absorbed, of administered dose","[10]; rats, oral",30-66 % of administered dose
same,serum and liver values of accumulated phytol after phytol is subtracted from the food,[11]; after withdrawal of dietary phytol,drops rapidly
same,distribution to the livers,[11]; at the 1% level in the food,no phytol was distributed to the livers
same,accumulation in tissues,"[11]; dietary phytol at doses 1-5% in the food, rat, mouse, rabbit and chinchillas (Steinberg et al., 1966)",accumulation in both liver and serum
same,serum cholesterol levels,adult mice; [15],remained unaffected
same,serum triglyceride levels,adult mice; [15],decreased
same,hepatic peroxisomes,"adult mice; enhanced supply of phytol in the diet (Van den Branden et al., 1986)",proliferation of hepatic peroxisomes
same,vitamin A (retinol) induced teratogenic effects,[2],able to prevent
same,principal carriers of phytol in plasma,[12],Plasma cholesterol esters and triglycerides
chlorophyll,absorption of phytol compared to when given as pure phytol,[13],much lower
